Like-named read-outs stand apart in the source and are kept apart here.

The values that follow come from patent publication US9359338B2, “Cyclopropanecarboxamido-substitute aromatic compounds as anti-tumor agents” (Crown Bioscience Inc. (Taiwan), priority 2012, dated 2016).

One assay addresses KDR kinase (790-1356 AA) (Homo sapiens (Human), UniProt P35968). The experiment in a line: Inhibitory activity at KDR kinase (Lance Ultra Ulight-TK assay). The format is biochemical. On the procedure:
Inhibitory Activity of Compounds at KDR Kinase
• [Experimental method]: Use Lance@Ultra Ulight™-TK assay kit from PerKinElmer to evaluate the inhibitory activity of compounds at KDR kinase. • [Instrument]: PerKinElmer's ENVISION plate reader • [Materials]: Optiplate-384 well plate (PerKinElmer), kinase buffer (50 mM Hepes pH7.5, 0.25 mM EGTA, 2 mM DTT, 0.01% Tween 20, 10 mM Mg^2+, 0.5 mM Mn^2+), KDR kinase (790-1356 AA, Crown Bioscience), KDR kinase substrate (PerKinElmer catalogue # TRF0127-M), Lance@Eu-W1024-anti-phosphotyrosine (PT66) (PerKinElmer, catalogue #AD0068), ATP (Invitrogen), DMSO (Sigma, catalogue #34869), purified water (Millipore, type: Milli-Q). • [Study conditions]: Mix KDR (final concentration: 20 nM) and compound (final DMSO: 0.5%), pre-incubate for 20 min at 30° C.; then add ATP (final concentration: 90 μM) and the substrate (final concentration […]). React for 2 hrs at 30° C. After the reaction, add antibody and reaction for 60 min at 30° C. Read the plate (615 nm, 665 nm), calculate the ratio of the value at 665 nm vs 615 nm and analyze the data. • [Samples]: Compounds in the examples and Sorafenib (positive control) • [Data Analysis]: Use CBIS data analysis software to calculate IC50 values

A further assay deals with PLC-PRF-5 cells. The experiment in a line: Inhibition of proliferation of PLC-PRF-5 cells (ATPlite). Conditions: Homo sapiens. Format: cell-based. The text has this:
Inhibitory Activity of Compounds to the Proliferation of PLC-PRF-5 Cells
• [experimental Method]: Use PerKinElmer's ATPlite™ Luminescence ATP Detection Assay System to evaluate the inhibitory activity of compounds to the proliferation of PLC-PRF-5 cells. • [Instruments]: ENVISION plate reader (PerKinElmer) and centrifuge (Thermo Scientific, Sorvall ST16R) • [material]: PLC-PRF-5 cells (ATCC), 96-well plate (Nunc, #165305), DMEM medium (Gibco, #11965-092), PBS (Invitrogen, #10010023), fetal bovine serum (Gibco, #16000044), DMSO (Sigma, #D2650), ATPlite™ Luminescence ATP Detection Assay System (PerkinElmer, #6016949), purified water (Millipore, type: Milli-Q). • [Protocol]: Grow PLC-PRF-5 cells in DMEM supplemented with 10% FBS. When the cells reach 80% confluency, collect cells by trypsinization and centrifugation at 800 rpm for 3 min. Resuspend cells with appropriate volume of medium and count cell numbers. Adjust cell concentration to 50000 cells/mL, and split 160 μL cell suspension per well into 96-well plates. Transfer the plates into cell culture incubator (37° C., 5% CO2) and incubate cells for 2 hrs. Prepare compound serial dilutions in culture medium with total 8 compound concentrations at 3-fold serial dilutions (the final top concentration starts from 30 μM). Dispense 40 μL of each test compound dilution into corresponding wells with DMSO at 0.3% final concentration. Continue incubating cells in cell culture incubator for additional 96 hrs at 37° C., 5% CO2. Discard culture medium, and wash cells once with PBS. Add 50 μL cell lysis buffer per well and shake plates for 5 min at room temperature to ensure complete lysis of cells. Then add 50 μL of substrate solution and shake plates for 1 min at room temperature. Allow the plates to incubate at room temperature for 5 min, followed by recording the luminescence signals using Envision, and subsequent data analysis. • [Samples]: Compounds in the examples and Sorafenib (positive control) • [Data analysis]: Use CBIS data analysis software to calculate IC50 values

Another assay relates to pERK in MDA-MB-231 cells. The experiment in a line: Inhibitory activity at pERK (In Cell Western, MDA-MB-231 cells). The format is cell-based. Conditions: Homo sapiens. On the procedure: Inhibitory Activity of Compounds at pERK
When the cells reach 80% confluency, collect cells by trypsinization and centrifugation at 800 rpm for 3 minutes. Resuspend cells with appropriate volume of medium and count cell numbers. Adjust cell concentration to 70000 cells/mL, and split 100 μL cell suspension per well into 96-well plates. Transfer the plates into cell culture incubator (37° C., 5% CO2) and incubate cells overnight. Discard the medium, wash with PBS once, Prepare compound serial dilutions in culture medium with total 8 compound concentrations at 3-fold serial dilutions (the final top concentration starts from 30 μM). Dispense 75 μL DMEM medium (with 0.1% BSA) and 25 μL of each test compound dilution into corresponding wells with DMSO at 0.3% final concentration. Continue incubating cells in cell culture incubator for additional 2 hrs at 37° C., 5% CO2. Discard culture medium, and wash cells once with PBS. Add 100 μL of 4% formaldehyde solution to each well and fix for 20 min. Discard the formaldehyde, then add 100 μL ice-cold 100% methanol at 4° C. for 20 min. Discard methanol, wash with PBS three times. Add to each well 100 μL of 2% BSA solution, seal for 30 min at room temperature. Discard the BSA solution, add to each well 50 μL of the 1st antibody solution (prepared with 2% BSA, 1:250 dilution), incubate at 4° C. overnight. Discard the 1^St antibody solution, wash with PBS four times. Add to each well […] the 2nd antibody solution (prepared with 1% BSA, 1:1000 dilution), incubate at room temperature for 1 hr. Discard the 2nd antibody solution, wash with PBS four times, add to each well 100 μL PI solution (1.5 μM), incubate at room temperature for 30 min. Use Acumen (TPP) to measure the fluorescence. • [Samples]: Compounds in the examples and sorafenib (positive control) • [Data Analysis]: Use CBIS data analysis software to calculate IC50 values

Setting [1] is: PLC-PRF-5, PLC-PRF-5 cells, read-out: PLC-PRF-5 cell proliferation IC50.
[2] abbreviates: MDA-MB-231, MDA-MB-231 cells, read-out: MDA-MB-231 pERK IC50.

Chain of KDR kinase (790-1356 AA) (P35968 790-1356): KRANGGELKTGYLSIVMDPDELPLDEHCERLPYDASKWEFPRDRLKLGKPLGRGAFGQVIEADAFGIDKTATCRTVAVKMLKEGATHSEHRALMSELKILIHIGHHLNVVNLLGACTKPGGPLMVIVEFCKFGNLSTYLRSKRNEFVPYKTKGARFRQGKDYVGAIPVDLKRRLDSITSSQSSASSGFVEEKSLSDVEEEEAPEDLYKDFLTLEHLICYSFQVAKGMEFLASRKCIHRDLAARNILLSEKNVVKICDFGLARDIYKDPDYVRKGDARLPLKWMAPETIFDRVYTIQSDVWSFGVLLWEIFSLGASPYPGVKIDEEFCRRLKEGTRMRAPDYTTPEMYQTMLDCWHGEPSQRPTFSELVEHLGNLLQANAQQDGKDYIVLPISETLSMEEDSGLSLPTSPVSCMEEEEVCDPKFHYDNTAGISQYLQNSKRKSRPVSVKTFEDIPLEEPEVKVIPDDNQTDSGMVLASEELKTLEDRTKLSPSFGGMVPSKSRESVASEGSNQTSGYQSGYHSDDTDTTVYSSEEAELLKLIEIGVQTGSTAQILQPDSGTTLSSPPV

For the compound `Cc1cc(Oc2cc(NC(=O)C3CC3)ncn2)ccc1NC(=O)Nc1cc(N2CCCC2)cc(C(F)(F)F)c1` [Exe. 077], the IC50 was determined as 0.0143 µM on KDR kinase (790-1356 AA), 16.5 µM in the assay on PLC-PRF-5 cells (setting [1]) and 0.169 µM with pERK in MDA-MB-231 cells (setting [2]).

Regarding `Cc1cc(Oc2cc(NC(=O)C3CC3)ncn2)ccc1NC(=O)Nc1ccc(NC2CCN(C)CC2)c(C(F)(F)F)c1` [Exe. 078], the IC50 against KDR kinase (790-1356 AA) worked out at 0.0133 µM; with PLC-PRF-5 cells (setting [1]) it was 0.879 µM; in the assay with pERK in MDA-MB-231 cells (setting [2]), 0.028 µM.

Take `Cc1cc(Oc2cc(NC(=O)C3CC3)ncn2)ccc1NC(=O)Nc1cccc(OC(F)(F)F)c1` [Exe. 079]: the IC50 worked out at 0.014 µM against KDR kinase (790-1356 AA), 6 µM in the assay with PLC-PRF-5 cells (setting [1]) and 0.08 µM in the assay on pERK in MDA-MB-231 cells (setting [2]).

As for `Cc1cc(Oc2cc(NC(=O)C3CC3)ncn2)ccc1NC(=O)Nc1cc(OC(F)(F)F)ccc1F` [Exe. 080], the values for the IC50 against KDR kinase (790-1356 AA), in the assay on PLC-PRF-5 cells (setting [1]) and in the assay on pERK in MDA-MB-231 cells (setting [2]) were 0.0081 µM, 3.04 µM and 0.029 µM, respectively.

Regarding `Cc1cc(Oc2cc(NC(=O)C3CC3)ncn2)ccc1NC(=O)Nc1ccc(F)c(OC(F)(F)F)c1` [Exe. 081], the IC50 against KDR kinase (790-1356 AA) amounted to 0.0133 µM; with PLC-PRF-5 cells (setting [1]) it was 16 µM; in the assay on pERK in MDA-MB-231 cells (setting [2]), 0.104 µM.

In the case of `Cc1cc(Oc2cc(NC(=O)C3CC3)ncn2)ccc1NC(=O)Nc1ccc(Cl)c(OC(F)(F)F)c1` [Exe. 082], the IC50 came out at 0.0068 µM against KDR kinase (790-1356 AA), 22.5 µM with PLC-PRF-5 cells (setting [1]) and 0.036 µM in the assay on pERK in MDA-MB-231 cells (setting [2]).

On to `Cc1cc(Oc2cc(NC(=O)C3CC3)ncn2)ccc1NC(=O)Nc1cc(F)cc(C(C)(F)F)c1` [Exe. 083], for which the IC50 against KDR kinase (790-1356 AA) stood at 0.0143 µM; in the assay with PLC-PRF-5 cells (setting [1]), 20.4 µM; with pERK in MDA-MB-231 cells (setting [2]), 0.609 µM.

Take `Cc1cc(Oc2cc(NC(=O)C3CC3)ncn2)ccc1NC(=O)Nc1cccc(C(C)(F)F)c1` [Exe. 084]: the IC50 was 0.0122 µM against KDR kinase (790-1356 AA), 5.86 µM in the assay with PLC-PRF-5 cells (setting [1]) and 0.122 µM with pERK in MDA-MB-231 cells (setting [2]).

Take `Cc1cc(Oc2cc(NC(=O)C3CC3)ncn2)ccc1NC(=O)Nc1ccc(C#N)c(Cl)c1` [Exe. 086]: the IC50 against KDR kinase (790-1356 AA) stood at 0.0083 µM; in the assay with PLC-PRF-5 cells (PLC-PRF-5, read-out: PLC-PRF-5 cell proliferation IC50), 19.3 µM; in the assay with pERK in MDA-MB-231 cells (MDA-MB-231, read-out: MDA-MB-231 pERK IC50) it was 0.226 µM.

With `Cc1cc(Oc2cc(NC(=O)C3CC3)ncn2)ccc1NC(=O)Nc1cc(N2CCOCC2)cc(C(F)(F)F)c1` [Exe. 087], the IC50 is 0.0129 µM on KDR kinase (790-1356 AA), 5.05 µM in the assay with PLC-PRF-5 cells (setting [1]) and 0.036 µM with pERK in MDA-MB-231 cells (setting [2]).

Take `O=C(Nc1ccc(Oc2cc(NC(=O)C3CC3)ncn2)c(Cl)c1)Nc1ccc(F)c(C(F)(F)F)c1` [Exe. 088]: the IC50 on KDR kinase (790-1356 AA) was found to be 0.0114 µM; in the assay with PLC-PRF-5 cells (setting [1]), 2.05 µM; in the assay with pERK in MDA-MB-231 cells (setting [2]) it was 0.106 µM.

Consider `O=C(Nc1ccc(F)c(C(F)(F)F)c1)Nc1ccc(Oc2cc(NC(=O)C3CC3)ncn2)cc1Cl` [Exe. 089], for which the IC50 came out at 0.0152 µM against KDR kinase (790-1356 AA), 6.87 µM in the assay on PLC-PRF-5 cells (setting [1]) and 0.019 µM with pERK in MDA-MB-231 cells (setting [2]).

In the case of `O=C(Nc1cc(F)cc(C(F)(F)F)c1)Nc1ccc(Oc2cc(NC(=O)C3CC3)ncn2)cc1Cl` [Exe. 090], the IC50 against KDR kinase (790-1356 AA) came out at 0.0122 µM; in the assay with PLC-PRF-5 cells (setting [1]), 2.8 µM; in the assay with pERK in MDA-MB-231 cells (setting [2]), 0.042 µM.

Turning to `Cc1cc(Oc2cc(NC(=O)C3CC3)ncn2)c(F)cc1NC(=O)Nc1ccc(Cl)c(C(C)(F)F)c1` [Exe. 091], the IC50 is 0.0128 µM against KDR kinase (790-1356 AA), 7.6 µM in the assay with PLC-PRF-5 cells (setting [1]) and 0.053 µM in the assay with pERK in MDA-MB-231 cells (setting [2]).
